Laboratory results reported in ChEMBL document CHEMBL4483862, “Open-source discovery of chemical leads for next-generation chemoprotective antimalarials” (2018).

System: Plasmodium berghei
Assay: Luciferase/luciferin-expressing antifolate-resistant parasites were used to infect a culture of HepG2 cells that were pre-incubated with compounds. Infected hepatocytes emit light due to the luciferase reaction. Assay results are presented as the percent inhibition of light emission compared to control. […]
Type: functional
Conditions: sporozoite; for IC90: read-out: LUCIFERASE INFECTION ASSAY - IC90

SMILES | IC90 | further results
CCOc1cc(/C=C2\CN(CC)C/C(=C\c3ccc(O)c(OCC)c3)C2=O)ccc1O | 4.59 µM | IC50 (HEPG2TOX_HILL_SLOPE 12.4, HEPG2TOX_R_SQUARED 0.875, PBLUC_HILL_SLOPE 8.96, PBLUC_R_SQUARED 0.775, read-out: LUCIFERASE INFECTION ASSAY - IC50): 3.59 µM
CCOc1cc(/C=C2\CN(C)C/C(=C\c3ccc(O)c(OCC)c3)C2=O)ccc1O | 6.75 µM | IC50 (HEPG2TOX_HILL_SLOPE 12.2, HEPG2TOX_R_SQUARED 0.94, PBLUC_HILL_SLOPE 1.92, PBLUC_R_SQUARED 0.794, read-out: LUCIFERASE INFECTION ASSAY - IC50): 2.16 µM
CCN(c1ccccc1)S(=O)(=O)c1ccc(C(=O)NCC(c2ccccc2OC)N2CCCC2)cc1 (stereo not given) | 3.69 µM | IC50 (HEPG2TOX_HILL_SLOPE 12.4, HEPG2TOX_R_SQUARED 0.631, PBLUC_HILL_SLOPE 22.9, PBLUC_R_SQUARED 0.104, read-out: LUCIFERASE INFECTION ASSAY - IC50): 3.36 µM
O=C(Nc1ccccc1)Nc1ccc(Cl)cc1[N+](=O)[O-] | 5.21 µM | IC50 (HEPG2TOX_HILL_SLOPE 12.3, HEPG2TOX_R_SQUARED 0.323, PBLUC_HILL_SLOPE 4.88, PBLUC_R_SQUARED 0.281, read-out: LUCIFERASE INFECTION ASSAY - IC50): 3.32 µM
CCOC(=O)c1cnc(-c2ccccn2)nc1O | > 13.5 µM | IC50 (HEPG2TOX_HILL_SLOPE 12.4, HEPG2TOX_R_SQUARED 0.686, PBLUC_HILL_SLOPE 4.24, PBLUC_R_SQUARED 0.376, read-out: LUCIFERASE INFECTION ASSAY - IC50): 8.76 µM
COc1cc(C(=O)N/N=C(\Cc2ncc[nH]2)c2ccccc2)cc(OC)c1OC | > 10 µM | IC50 (HEPG2TOX_HILL_SLOPE 12.3, 3.85, HEPG2TOX_R_SQUARED 0.0839, 0.975, PBLUC_HILL_SLOPE 2.96, PBLUC_R_SQUARED 0.327, read-out: LUCIFERASE INFECTION ASSAY - IC50): 5.09 µM
FC(F)(F)c1cccc(-c2ccc3ncc(-c4cccnc4)n3n2)c1 | 2.23 µM | IC50 (HEPG2TOX_HILL_SLOPE 12.4, HEPG2TOX_R_SQUARED 0.643, PBLUC_HILL_SLOPE 4.46, PBLUC_R_SQUARED 0.619, read-out: LUCIFERASE INFECTION ASSAY - IC50): 1.36 µM
Nc1ccc(-c2cn3c(-c4ccc5ncccc5c4)cnc3cn2)cn1 | 8.67 µM | IC50 (HEPG2TOX_HILL_SLOPE 12.3, HEPG2TOX_R_SQUARED 0.596, PBLUC_HILL_SLOPE 12.7, PBLUC_R_SQUARED 0.251, read-out: LUCIFERASE INFECTION ASSAY - IC50): 7.29 µM
CCN1C/C(=C/c2ccccc2OC(F)F)C(=O)/C(=C/c2ccccc2OC(F)F)C1 | > 10 µM | IC50 (HEPG2TOX_HILL_SLOPE 12.5, HEPG2TOX_R_SQUARED 0.688, PBLUC_HILL_SLOPE 10.4, PBLUC_R_SQUARED 0.447, read-out: LUCIFERASE INFECTION ASSAY - IC50): 9.35 µM
O=C(N/N=C/c1ccc(N2CCOCC2)s1)c1ccc(COc2cccc3cccnc23)cc1 | > 10 µM | IC50 (HEPG2TOX_HILL_SLOPE 12.5, HEPG2TOX_R_SQUARED 0.767, PBLUC_HILL_SLOPE 2.46, PBLUC_R_SQUARED 0.528, read-out: LUCIFERASE INFECTION ASSAY - IC50): 5.64 µM
O=C1C(=O)N(Cc2ccc(F)cc2)c2c1cccc2C(F)(F)F | 6.88 µM | IC50 (HEPG2TOX_HILL_SLOPE 12.5, HEPG2TOX_R_SQUARED 0.837, PBLUC_HILL_SLOPE 3.51, PBLUC_R_SQUARED 0.677, read-out: LUCIFERASE INFECTION ASSAY - IC50): 3.68 µM
FC(F)(F)c1cccc(Nc2cc3[nH]c(-c4ccccn4)cc3cn2)c1 | > 10 µM | IC50 (HEPG2TOX_HILL_SLOPE 12.3, HEPG2TOX_R_SQUARED 0.757, PBLUC_HILL_SLOPE 15.4, PBLUC_R_SQUARED 0.209, read-out: LUCIFERASE INFECTION ASSAY - IC50): 9.04 µM
C=CCn1c(C)cc(C(=O)CNC(=O)Nc2ccccc2)c1C | > 10 µM | IC50 (HEPG2TOX_HILL_SLOPE 12.5, HEPG2TOX_R_SQUARED 0.766, PBLUC_HILL_SLOPE 0.462, PBLUC_R_SQUARED 0.648, read-out: LUCIFERASE INFECTION ASSAY - IC50): 0.495 µM
O=S(=O)(/C=C/c1ccccc1)N1CCSc2ccc(Cl)cc21 | 4.27 µM | IC50 (HEPG2TOX_HILL_SLOPE 12.6, HEPG2TOX_R_SQUARED 0.499, PBLUC_HILL_SLOPE 12.6, PBLUC_R_SQUARED 0.783, read-out: LUCIFERASE INFECTION ASSAY - IC50): 3.58 µM
CN(C)C(=O)c1ccc(-c2ccnc3n[nH]c(-c4ccc(Cl)cc4)c23)cc1 | 7.75 µM | IC50 (HEPG2TOX_HILL_SLOPE 12.3, HEPG2TOX_R_SQUARED 0.411, PBLUC_HILL_SLOPE 3.78, PBLUC_R_SQUARED 0.252, read-out: LUCIFERASE INFECTION ASSAY - IC50): 4.33 µM
CCN1CCc2nc(NC(=O)C3(c4ccc(Br)cc4)CC3)sc2C1 | 3.64 µM | IC50 (HEPG2TOX_HILL_SLOPE 12.5, HEPG2TOX_R_SQUARED 0.865, PBLUC_HILL_SLOPE 12.4, PBLUC_R_SQUARED 0.642, read-out: LUCIFERASE INFECTION ASSAY - IC50): 3.05 µM
CN1C/C(=C\c2ccccc2Cl)C(=O)/C(=C/c2ccccc2Cl)C1 | 3.58 µM | IC50 (HEPG2TOX_HILL_SLOPE 12.3, HEPG2TOX_R_SQUARED 0.936, PBLUC_HILL_SLOPE 378, PBLUC_R_SQUARED 0.452, read-out: LUCIFERASE INFECTION ASSAY - IC50): 3.56 µM
Cc1onc(-c2ccccc2)c1-c1csc(-c2ccc(Oc3ccc(C(F)(F)F)cn3)cc2)n1 | 2.83 µM | IC50 (HEPG2TOX_HILL_SLOPE 12.3, HEPG2TOX_R_SQUARED 0.647, PBLUC_HILL_SLOPE 12.5, PBLUC_R_SQUARED 0.454, read-out: LUCIFERASE INFECTION ASSAY - IC50): 2.37 µM
CCc1ccc2nc(Nc3nc(=O)cc(-c4cccc(OC)c4)[nH]3)nc(C)c2c1 | > 8.52 µM | IC50 (HEPG2TOX_HILL_SLOPE 12.4, HEPG2TOX_R_SQUARED 0.848, PBLUC_HILL_SLOPE 2.25, PBLUC_R_SQUARED 0.429, read-out: LUCIFERASE INFECTION ASSAY - IC50): 5.68 µM
N#Cc1ccc(Nc2nc(C(F)(F)F)nc3ccccc23)cc1 | 5.09 µM | IC50 (HEPG2TOX_HILL_SLOPE 12.3, HEPG2TOX_R_SQUARED 0.755, PBLUC_HILL_SLOPE 4.38, PBLUC_R_SQUARED 0.727, read-out: LUCIFERASE INFECTION ASSAY - IC50): 3.08 µM
CCc1ccc(CC)c(-c2csc(N/C(C)=C(\C#N)C(N)=O)n2)c1 | > 10 µM | IC50 (HEPG2TOX_HILL_SLOPE 12.4, HEPG2TOX_R_SQUARED 0.749, PBLUC_HILL_SLOPE 4.61, PBLUC_R_SQUARED 0.122, read-out: LUCIFERASE INFECTION ASSAY - IC50): 8.16 µM
O=C(Nc1cccc(C(F)(F)F)c1)c1cc(Cl)c(=O)n(Cc2cccc(C(F)(F)F)c2)c1 | > 6.95 µM | IC50 (HEPG2TOX_HILL_SLOPE 12.5, HEPG2TOX_R_SQUARED 0.604, PBLUC_HILL_SLOPE 13, PBLUC_R_SQUARED 0.312, read-out: LUCIFERASE INFECTION ASSAY - IC50): 6.47 µM
O=C(Nc1ccccc1)Nc1ccc(Sc2cccs2)cc1 | 8.94 µM | IC50 (HEPG2TOX_HILL_SLOPE 12.6, HEPG2TOX_R_SQUARED 0.73, PBLUC_HILL_SLOPE 4.46, PBLUC_R_SQUARED 0.693, read-out: LUCIFERASE INFECTION ASSAY - IC50): 5.46 µM
O=C(NC1CCCCC1)N1CCc2nc(NCc3cccc(Oc4ccccc4)c3)ncc2C1 | > 7.21 µM | IC50 (HEPG2TOX_HILL_SLOPE 12.4, HEPG2TOX_R_SQUARED 0.711, PBLUC_HILL_SLOPE 13.6, PBLUC_R_SQUARED 0.535, read-out: LUCIFERASE INFECTION ASSAY - IC50): 6.74 µM
Cc1cc(Br)c(O)c(/C=N/NC(=S)NC(C)(C)C)c1 | 4.85 µM | IC50 (HEPG2TOX_HILL_SLOPE 12.3, HEPG2TOX_R_SQUARED 0.401, PBLUC_HILL_SLOPE 113, PBLUC_R_SQUARED 0.332, read-out: LUCIFERASE INFECTION ASSAY - IC50): 4.76 µM
Fc1ccc(CNc2ncnc3ccsc23)cc1 | > 10 µM | IC50 (HEPG2TOX_HILL_SLOPE 12.4, 1.24, HEPG2TOX_R_SQUARED 0.688, 0.830, PBLUC_HILL_SLOPE 1.50, 7.58, PBLUC_R_SQUARED 0.332, 0.354, read-out: LUCIFERASE INFECTION ASSAY - IC50): 6.82 µM
N#Cc1ccc(/C=C/C(=O)c2cccc3ccccc23)cc1 | 7.94 µM | IC50 (HEPG2TOX_HILL_SLOPE 12.4, HEPG2TOX_R_SQUARED 0.741, PBLUC_HILL_SLOPE 61.7, PBLUC_R_SQUARED 0.602, read-out: LUCIFERASE INFECTION ASSAY - IC50): 7.66 µM
FC(F)(F)c1cc(-n2c(-c3cccnc3Oc3ccccc3)n[nH]c2=S)cc(C(F)(F)F)c1 | 4.66 µM | IC50 (HEPG2TOX_HILL_SLOPE 12.4, HEPG2TOX_R_SQUARED 0.913, PBLUC_HILL_SLOPE 1.97, PBLUC_R_SQUARED 0.614, read-out: LUCIFERASE INFECTION ASSAY - IC50): 1.53 µM
CCOC(=O)c1c(C)[nH]c(C(=O)Nc2nc(-c3ccc(C4CCCCC4)cc3)cs2)c1C | 9.4 µM | IC50 (HEPG2TOX_HILL_SLOPE 12.2, HEPG2TOX_R_SQUARED 0.959, PBLUC_HILL_SLOPE 12.5, PBLUC_R_SQUARED 0.559, read-out: LUCIFERASE INFECTION ASSAY - IC50): 7.88 µM
C/C=C/C=C/C(=O)Nc1ccc(Nc2ccccc2)cc1 | 5.63 µM | IC50 (HEPG2TOX_HILL_SLOPE 12.3, HEPG2TOX_R_SQUARED 0.699, PBLUC_HILL_SLOPE 454, 10.1, PBLUC_R_SQUARED 0.588, 0.566, read-out: LUCIFERASE INFECTION ASSAY - IC50): 5.17 µM
